This is an account of results in patent publication US11147884B2, “Inhibitors of NHE-mediated antiport” (Ardelyx, Inc., priority 2017, dated 2021).

The structures appear in SMILES notation.

For assay [1], the system named is human ileum monolayer culture. Briefly: Transepithelial electrical resistance (TEER) in human ileum organoid monolayer cultures. Type of assay: cell-based. To be noted: 3 μM, vs DMSO (FIG. 1D). As to the method:
Each human ileum monolayer culture well was washed twice with fresh SBM on the apical side on day 6 before compound dosing. All compound stocks were 10 mM dissolved in DMSO. Each compound stock was individually mixed with fresh SBM to reach final compound concentration and dosed only on the apical side of the monolayer (total volume 200 μl). DMSO at the equivalent concentration was used as the vehicle control. Duplicate wells were dosed for each compound. Transepithelial electrical resistance (TEER) was used as a quantitative technique to measure of tight junction permeability. TEER values were recorded using a volt/ohm meter (MERS00002, Millipore) before and after dosing for all wells. Each of the duplicate TEER values following treatment were corrected for the individual well baseline TEER. Baseline corrected TEER for each example compound was compared to the average of the DMSO wells and expressed as a percent TEER of vehicle control. Intracellular pH was measured in human ileum stem cells grown as monolayers on 96 well Transwell plates cells incubated with 10 μM of pH sensitive dye BCECF-AM (Life Technologies, cat# B1150) for 30 min at 37° C., 5% CO2 in Na-containing buffer (120 mM NaCl, 10 mM HEPES, 10 mM glucose, 5 mM KCl, 2 mM CaCl2, 1 mM MgCl2, pH 7.4). After 30 min the dye was aspirated and cells were washed twice with Na-containing buffer.
Fluorescent readings were acquired every 5 minutes for a period of 30 minutes on a Flexstation microplate reader at dual excitation wavelengths of 495 nm and 439 nm and emission wavelength of 538 nm (Molecular Devices). The fluorescent ratio for pH indication was calculated from ratio of the two excitation wavelengths (495/439 nm).

Assay [2] deals with human ileum stem cells grown as monolayers. Briefly: Intracellular pH (BCECF-AM) in human ileum monolayers. Type of assay: cell-based. As to conditions: human ileum monolayer, 3 μM, vs DMSO (FIG. 1C).
In another assay the target is T1, NHE3 (Homo sapiens, UniProt P48764).
T1 construct: the increase in NHE3 expression after differentiation; endogenous in cells; host or cells: enterocytes (differentiated human ileum organoid monolayer cultures)
T1 sequence (P48764 26-834): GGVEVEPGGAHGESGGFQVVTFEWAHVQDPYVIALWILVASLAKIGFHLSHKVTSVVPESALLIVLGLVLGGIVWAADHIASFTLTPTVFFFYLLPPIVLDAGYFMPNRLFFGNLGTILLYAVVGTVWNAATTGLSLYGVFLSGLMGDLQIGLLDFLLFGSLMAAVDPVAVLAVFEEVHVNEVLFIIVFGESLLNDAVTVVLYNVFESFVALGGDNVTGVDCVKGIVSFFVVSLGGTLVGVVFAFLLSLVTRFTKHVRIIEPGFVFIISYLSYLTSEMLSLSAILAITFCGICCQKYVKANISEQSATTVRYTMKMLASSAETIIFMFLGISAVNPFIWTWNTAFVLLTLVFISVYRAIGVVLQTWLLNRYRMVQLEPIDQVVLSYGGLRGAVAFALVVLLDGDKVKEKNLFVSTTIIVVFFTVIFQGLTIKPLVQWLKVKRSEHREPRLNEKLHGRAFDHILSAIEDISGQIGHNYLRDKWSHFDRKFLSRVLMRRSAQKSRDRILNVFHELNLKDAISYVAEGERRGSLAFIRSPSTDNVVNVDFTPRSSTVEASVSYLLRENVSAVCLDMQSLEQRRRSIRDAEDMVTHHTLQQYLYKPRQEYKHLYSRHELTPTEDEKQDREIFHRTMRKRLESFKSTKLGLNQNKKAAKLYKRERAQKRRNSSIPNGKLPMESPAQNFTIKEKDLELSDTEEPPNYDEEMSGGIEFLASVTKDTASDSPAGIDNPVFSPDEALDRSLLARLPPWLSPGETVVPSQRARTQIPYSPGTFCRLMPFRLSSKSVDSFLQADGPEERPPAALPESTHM
Nature of the assay: NHE3 activity in enterocytes by intracellular pH recovery following acid loading. Type of assay: cell-based.

A further assay has as its system mice. Briefly: Gastrointestinal transit (Evans Blue dye front) in opioid induced constipation model. To be noted: oral vehicle, subcutaneous loperamide (0.3 to 6 mg/kg); 30-minute period; vehicle/vehicle approximately 70%. Type of assay: in vivo. The procedure:
Gastrointestinal transit is measured in mice treated with the peripherally acting μ-opioid agonist loperamide to assess the ability of selected example compounds to restore gastrointestinal motility in a model of opioid induced constipation. Approximately eight-week old, female, CD 1 rats are purchased from Envigo (Livermore, Calif.), are housed 4 per cage and acclimated for at least 48 hours before study initiation. Animals are fed standard laboratory rodent chow Harlan Teklad Global 2018 (Maddison, Wis.). […] 30 minutes later, animals are euthanized by carbon dioxide inhalation, and the length from the pylorus to cecum (whole length of the small intestine) and the length from the pylorus to the Evans Blue dye front are measured and recorded. For an individual animal, the length travelled by the Evans Blue dye front is divided by the length of the whole small intestine, measured from the pylorus to the cecum, and multiplied by 100, to provide the distance of the small intestine travelled by the dye as a percentage. […] The effect of example compounds on GIT motility in the presence of loperamide is calculated as the ability to restore vehicle/vehicle transit distance from the vehicle/loperamide transit, expressed as a percentage.

Method for NHE3: Known NHE3 inhibitor Tenapanor, as well as non NHE3 inhibitors nigericin, BAM15, FCCP, or DMSO control, were diluted into Na-containing buffer and added to the apical compartment of the Transwell. Fluorescent readings were acquired every 5 minutes for a period of 30 minutes on a Flexstation microplate reader at dual excitation wavelengths of 495 nm and 439 nm and emission wavelength of 538 nm (Molecular Devices). The fluorescent ratio for pH indication was calculated from ratio of the two excitation wavelengths (495/439 nm).

Regarding `Fc1ccccc1Nc1nc2nonc2nc1Nc1ccccc1F` [BAM15], the “TEER compared with control” value in assay [1] is given as “increased TEER compared with control”. For the same molecule, the “intracellular pH compared with control” value in assay [2] is given as “decrease intracellular pH”. Moreover, the “inhibition of NHE3 activity in enterocytes” value at NHE3 is recorded as “neither nigericin, BAM15 nor FCCP inhibited NHE3 activity”.

`CN(C)C(=O)C(CCN1CCC(O)(c2ccc(Cl)cc2)CC1)(c1ccccc1)c1ccccc1` [loperamide]: in the assay with mice, the “length of the small intestine travelled by Evans Blue dye front” value is on record as around 25%.
